ChEMBL document CHEMBL1144741, “Review of cytotoxic cephalostatins and ritterazines: isolation and synthesis” (2008)
pEC50: −log10 of the molar value.

Columns and labels:
Assay type in all cases: functional
[1] = test system: RXF 393; assay: Antitumor activity against human RXF393 cells
[2] = test system: SF-295; assay: Antitumor activity against human SF295 cells
[3] = test system: HL-60; assay: Antitumor activity against human HL60 cells
[4] = test system: DMS-273; assay: Antitumor activity against human DMS273 cells
[5] = Antitumor activity against human […] cells
[6] = test system: U-251; assay: Antitumor activity against human U251 cells
[7] = test system: HOP-62; assay: Antitumor activity against human HOP62 cells
[8] = test system: CCRF-CEM; assay: Antitumor activity against human CCRF-CEM cells
[9] = test system: P388; assay: Antitumor activity against mouse P388 cells; settings: for pEC50: read-out: ED50 (the source's name)

SMILES	GI50 [1] [nM]	GI50 [2] [nM]	GI50 [3] [nM]	GI50 [4] [nM]	GI50 [5] [nM]	GI50 [6] [nM]	GI50 [7] [nM]	GI50 [8] [nM]	GI50 [9] [nM]	pEC50 [9]
C[C@@H]1[C@]2(O[C@H]3C=C4[C@@H]5CC[C@H]6Cc7nc8c(nc7C[C@]6(C)[C@H]5C[C@@H](O)[C@]4(C)[C@]31O)C[C@@H]1CC[C@H]3C4=C[C@@H]5O[C@]6(CC[C@](C)(O)CO6)C[C@]5(O)[C@@]4(C)[C@H](O)C[C@@H]3[C@@]1(C)C8)O[C@](C)(CO)C[C@H]2O [CEPHALOSTATIN 7]	< 0.1	< 0.1	< 0.1	< 0.1	< 0.1	< 0.1	< 0.1	< 0.1	< 0.1	
C[C@@H]1C[C@]2(O[C@H]3C=C4[C@@H]5CC[C@H]6Cc7nc8c(nc7C[C@]6(C)[C@H]5C[C@@H](O)[C@]4(CO)[C@H]3[C@@H]2C)C[C@@H]2CC[C@H]3C4=C[C@@H]5O[C@]6(O[C@](C)(CO)C[C@H]6O)[C@@H](C)[C@]5(O)[C@@]4(C)[C@H](O)C[C@@H]3[C@@]2(C)C8)OC1(C)C [CEPHALOSTATIN 8]	< 0.1	< 0.1	< 0.1	< 0.1	< 0.1	< 0.1	< 0.1	< 0.1	< 0.1	
C[C@@H]1[C@H]2CC=C3[C@@H]4CC[C@H]5Cc6nc7c(nc6C[C@]5(C)[C@H]4CC(=O)[C@@]32COC1(O)[C@H](O)CC(C)(C)O)C[C@@H]1CC[C@H]2C3=C[C@@H]4O[C@]5(O[C@](C)(CO)C[C@H]5O)[C@@H](C)[C@]4(O)[C@@]3(C)[C@H](O)C[C@@H]2[C@@]1(C)C7 (stereo partly specified) [CEPHALOSTATIN 9]	< 0.1	< 0.1	< 0.1	< 0.1	< 0.1	< 0.1	< 0.1	< 0.1	< 0.1	
C[C@H]1[C@H]2[C@H](C=C3[C@@H]4CC[C@H]5Cc6nc7c(nc6C[C@]5(C)[C@@H]4C[C@@H](O)[C@@]32C)C[C@@H]2CC[C@@H]3[C@H](CC(=O)[C@]34C[C@@H]3O[C@@]5(CCC(C)(C)O5)[C@@H](C)[C@@H]3[C@]4(C)O)[C@@]2(C)C7)O[C@]12C[C@](C)(CO)CO2 [RITTERAZINE W]										5.44
C[C@H]1[C@H]2[C@H](C=C3[C@@H]4CC[C@H]5Cc6nc7c(nc6C[C@]5(C)[C@@H]4C[C@@H](O)[C@@]32C)C[C@@H]2CC[C@@H]3[C@H](CC(=O)[C@]34C[C@@H]3O[C@]5(CCC(C)(C)O5)[C@@H](C)[C@@H]3[C@]4(C)O)[C@@]2(C)C7)O[C@]12C[C@](C)(CO)CO2 [RITTERAZINE X]										5.47
C[C@H]1[C@H]2[C@H](C=C3[C@@H]4CC[C@H]5Cc6nc7c(nc6C[C@]5(C)[C@@H]4C[C@@H](O)[C@@]32C)C[C@@H]2CC[C@H]3[C@H]4C[C@@H]5O[C@@]6(CCC(C)(C)O6)[C@@H](C)[C@@H]5[C@@]4(C)[C@H](O)C[C@@H]3[C@@]2(C)C7)O[C@]12CC[C@](C)(O)CO2 [RITTERAZINE Y]										8.40
C[C@@H]1[C@H](C)[C@]2(OC[C@]34C(=O)C[C@@H]5[C@@H](CC[C@H]6Cc7nc8c(nc7C[C@@]65C)C[C@@H]5CC[C@@H]6[C@H](CC(=O)[C@]67C[C@@H]6O[C@@]9(CCC(C)(C)O9)[C@@H](C)[C@@H]6[C@]7(C)O)[C@@]5(C)C8)[C@H]3C[C@H](O)[C@@H]4[C@H]2C)OC1(C)C [RITTERAZINE Z]										5.66
